Tests used:
[1] = ORACFL test (Oxygen Radical Absorbance Capacity) using fluorescein/AAPH; type: physicochemical; conditions: compounds at 10 μM; for ORACFL: mean ± SEM of three independent experiments in triplicate
Description: The antioxidant properties of the compounds according to the invention were evaluated using a ORACFL test using fluorescein (J. Agric. Food Chem., 2004 52, 48-54; J. Agric. Food Chem., 2005, 53, 4290-4302). As such, peroxide radicals, generated in the presence of AAPH (2,2′-azobis(2-methylpropionamidine)dihydrochloride) at 37° C., react with this fluorescent sensor in order to give a non-fluorescent product. The protective effect of the test compounds can then be determined by following the decay curve of the fluorescence of the fluorescein over time and be measuring the area under the curve (AUC) of the sample in relation to that of a control corresponding to an absence of antioxidant.
The trolox (6-hydroxy-2,5,7,8-tetramethylchroman-2-carboxylic acid), a water-soluble analogue of vitamin E, is used as a standard for calculating the antioxidant capacity (ORACFL) of the compounds tested at 10 μM, expressed in […] of tested compound. This value is as such obtained using the straight-line calibration equation giving the area under the curve according to the various concentrations of trolox (Bioorg. Med. Chem., 2015, 23, 1135-1148) (FIG. 11).
A solution of fluorescein (FL) (12 nM; 150 μL) is introduced into a black 96-well plate (Dutscher, Brumath, France). The compounds to be tested (1-20 μM; 25 μL) or trolox (1-50 μM; 25 μL) dissolved in D-PBS are added into each well. After equilibration of the plate during an incubation at 37° C. for a minimum of 30 min, the radical reactions are initiated using a solution of AAPH prepared extemporaneously (30 mM; 25 μL). The fluorescence (λEx: 485 nm; λEm: 520 nm) is measured every 90 seconds for 60 cycles using a temperature-controlled Tecan Infinite® 200 PRO microplate reader (measurements taken in triplicates during three independent experiments).

[2] = system: murine endothelial brain cells (bEnd.3); test: Cytotoxicity, cellular viability (CCK-8/WST-8) on bEnd.3; type: cell-based
Description: (§1) The cellular viability is evaluated by a colorimetric method based on the detection of the conversion of a salt of the tetrazolium (WST-8) by the metabolically active cells (CCK-8 kit, Sigma, Lyons, France) (Molecules, 2014, 19(8), 12048-12064; J. Pharmacol. Toxicol. Methods., 2007, 56(1), 58-62). Living cells have mitochondrial dehydrogenases that reduce the WST-8 (2-(2-methoxy-4-nitrophenyl)-3-(4-nitrophenyl)-5-(2,4-disulfophenyl)-2H-tetrazolium), monosodium salt) to formazan of an orange colour, which dissolves directly in the culture medium in the presence of 1-Methoxy PMS (1-methoxy-5-methylphenazinium methyl sulphate). After an incubation for 1 h at 37° C., the absorbance of the formazan is measured at 450 nm. The absorbance is directly proportional to the number of living cells.
(§2) Briefly, the cells are inoculated in 96-well plates at a rate of 5.10^3 cells per well in 100 μL of the suitable medium until subconfluence. The cells are then washed with D-PBS, then treated with various concentrations (10 μM, 100 μM) of the products to be tested in triplicates for 24 and 48 h. A positive control is carried out with 10% of DMSO. The CCK-8 (10 μL) solution is then added to each well for an incubation for 1 h at 37° C. The measurement of the absorbance is taken at 450 nm using a Perkin Elmer 2103 Envision® microplate reader.
(§3) The viability of the cells is expressed as a % of the control (untreated cells) by the mean±standard deviation of triplicates forming a representative experiment or of three independent experiments conducted in triplicate.

[3] = system: rat pheochromocytoma cells, treated as neuronal cells (PC12); test: Cytotoxicity, cellular viability (CCK-8/WST-8) on PC12; type: cell-based
Description: as §1, §2, §3

[4] = system: human fibroblasts (MRC-5); test: Cytotoxicity, cellular viability (CCK-8/WST-8) on MRC-5; type: cell-based
Description: as §1, §2, §3

[5] = system: low-density lipoproteins (LDLs); test: Antiradical properties: inhibition of lipid peroxidation in AAPH-induced oxidation of LDLs; type: biochemical; conditions: high concentration (100 μM)
Description: The antiradical properties of the various compounds are determined by inhibition of the lipid peroxidation in the in vitro model of the oxidation of the low-density lipoproteins (LDLs) (Free Radic. Biol. Med., 1992, 13, 341-390). The lipid peroxidation is initiated by the attack by free radicals of a double bond of a polyunsaturated fatty acid present in the LDLs. […] Once initiated, the oxidation of the LDLs is a chain reaction of lipid peroxidation generated by the free radicals. The oxidation in vitro of the LDLs is induced at 37° C. by the adding of the water-soluble compound 2,2′-Azobis(2-methylpropionamidine)dihydrochloride (AAPH), which generates free radicals during the spontaneous thermal breakdown thereof
Briefly, the oxidation, carried out in a 96-well plate, is induced at 37° C. by adding 20 μL of a solution of AAPH at 2 mM in D-PBS at 160 μL of LDL (100 μg/mL) in the presence or absence of 20 μL of the various solutions of the compounds to be tested dissolved in D-PBS (0.1 to 100 μM in final concentrations). The LDLs alone without adding AAPH are used as a negative control. Each oxidation is carried out in double. During the oxidation, the formation of the conjugated dienes is followed by the measurement of the optical density at 234 nm every 10 minutes for 8 h at 37° C. using a temperature-controlled TECAN spectrophotometer. The vitamin E (α-tocopherol) which is a powerful antioxidant recognised in this in vitro model is used as a reference molecule (J. Nutr. Biochem., 2012, 23, 845-51).

[6] = Formation of adducts with MGO, kinetic study by HPLC; type: physicochemical; conditions: compound 10 mM, MGO 20 mM, 37° C., after 15 min of incubation
Description: The compounds to be tested are incubated at 37° C. in the presence of MGO or of MDA. A kinetic study aiming to report on the formation of adducts with the MGO or MDA is then carried out via HPLC analysis.
The compounds to be tested (30 μmol) are dissolved in PBS (1.5 mL). An aqueous solution (qsp 1.25 mL) of MGO at 40% in water (250 μmol) is then prepared and in parallel, MDA bis-(diOEt)-acetal (250 μmol) is set to react with a solution of HCl 1N (2 eq) in water (qsp 1.25 mL) for 1 h at room temperature. An aqueous solution of NaOH 0.05N is also required to neutralise the reaction medium (5 mL).
The solution of the compound to be tested (625 μL—final concentration in the medium=10 mM) is then set to react with the solution of MGO or of MDA prepared extemporaneously (125 μL—final concentration in the medium=20 mM) in the presence of NaOH 0.05 N (0.5 mL).
The various mixtures are then incubated in the oven at 37° C. for 24 h.
A sampling of each mixture (100 μL) is taken at regular intervals of time (0.25; 0.5; 1; 5 and 24 h) and stored at −20° C. in order to stop the reaction. After dilution in a MeCN/H2O 98:2 mixture at room temperature, the HPLC analysis is carried out on a Shimadzu LCMS-2020 apparatus (UV chromatogram at 190 nm and mass spectrum in positive electrospray ionisation mode (ESI+)) after separation on the Waters Acquity column using a gradient of solvents H2O+HCOOH 0.1%/MeCN+HCOOH 0.1% (98/2 for 2 min, then 55/45 for 2 min and 45/55 for 3 min) with a flow rate of 0.3 mL/min at 40° C. and an injection of volume of 1 (“detection mode: scan, interface voltage: tuning file, DL voltage: 100 V, Q-array DC: 40 V, Q-array RF: 40 V”). A blank is first of all carried out using a solution containing the reaction medium without scavenger. Then, a free scavenger solution at 10 mM is used as a negative control and the carnosine as a reference of the literature. The proportion of adducts formed with the MGO or MDA (generally, tR=4.1 to 6.8 min) is then measured in relation to the quantity of remaining free scavenger (generally, tR=0.8 to 4.6 min) after measurement of the area under the curve of the corresponding peaks on the UV spectrum (measurements taken for a representative sample).

[7] = MRC-5, 10 μM, 24 h of treatment
[8] = MRC-5, 10 μM, 48 h of treatment
[9] = MRC-5, 100 μM, 24 h of treatment
[10] = MRC-5, 100 μM, 48 h of treatment

NCC(N)CC(=O)N1CCN(C(=O)CCn2cccc(O)c2=O)CC1 (stereo not shown) [Compound 37d, 1-(3-(4-(3,4-diaminobutanoyl)piperazin-1-yl)-3-oxopropyl)-3-hydroxypyridin-2(1H)-one]
ORACFL [1]: 1.21 ± 0.07 μmol TE/μmol

Cc1c(C)c2c(c(C)c1O)CCC(C)(C(=O)O)O2 (stereo not shown) [Trolox, 6-hydroxy-2,5,7,8-tetramethylchroman-2-carboxylic acid, reference compound]
ORACFL [1]: 1 μmol TE/μmol

NCC(N)CCC(=O)N1CCN(C(=O)c2cc(O)c(O)c(O)c2)CC1 (stereo not shown) [Compound 30a, 4,5-diamino-1-(4-(3,4,5-trihydroxybenzoyl)piperazin-1-yl)pentan-1-one]
viability of the cells as a percentage of the untreated cells ([2]; mouse, 24 h, 10 μM): 117%
viability of the cells as a percentage of the untreated cells ([2]; mouse, 24 h, 100 μM): 96%
viability of the cells as a percentage of the untreated cells ([2]; mouse, 48 h, 10 μM): 95%
viability of the cells as a percentage of the untreated cells ([2]; mouse, 48 h, 100 μM): 108%
viability of the cells as a percentage of the untreated cells ([3]; rat, 24 h, 10 μM): 116%
viability of the cells as a percentage of the untreated cells ([3]; rat, 24 h, 100 μM): 140%
viability of the cells as a percentage of the untreated cells ([3]; rat, 48 h, 10 μM): 96%
viability of the cells as a percentage of the untreated cells ([3]; rat, 48 h, 100 μM): 113%
viability of the cells as a percentage of the untreated cells [4, 7]: 115%
viability of the cells as a percentage of the untreated cells [4, 8]: 101%
viability of the cells as a percentage of the untreated cells [4, 9]: 112%
viability of the cells as a percentage of the untreated cells [4, 10]: 103%
ORACFL [1]: 0.89 ± 0.10 μmol TE/μmol

Cl.Cl.NCC(N)C(=O)N1CCNCC1 (stereo not shown) [Dap-Pip, reference compound]
anti-radical effect [5]: does not show any anti-radical effect
viability of the cells as a percentage of the untreated cells ([2]; bEnd.3, 10 μM, 24 h of treatment): 123%
viability of the cells as a percentage of the untreated cells ([2]; bEnd.3, 10 μM, 48 h of treatment): 131%
viability of the cells as a percentage of the untreated cells ([2]; bEnd.3, 100 μM, 24 h of treatment): 103%
viability of the cells as a percentage of the untreated cells ([2]; bEnd.3, 100 μM, 48 h of treatment): 142%
viability of the cells as a percentage of the untreated cells ([3]; PC12, 10 μM, 24 h of treatment): 114%
viability of the cells as a percentage of the untreated cells ([3]; PC12, 10 μM, 48 h of treatment): 110%
viability of the cells as a percentage of the untreated cells ([3]; PC12, 100 μM, 24 h of treatment): 120%
viability of the cells as a percentage of the untreated cells ([3]; PC12, 100 μM, 48 h of treatment): 102%
viability of the cells as a percentage of the untreated cells [4, 7]: 125%
viability of the cells as a percentage of the untreated cells [4, 8]: 113%
viability of the cells as a percentage of the untreated cells [4, 9]: 128%
viability of the cells as a percentage of the untreated cells [4, 10]: 111%
antioxidant capacity (ORACFL), in words [1]: absence of activity
ORACFL [1]: 0 μmol TE/μmol

NCC(N)CCC(=O)N1CCN(C(=O)CCn2cccc(O)c2=O)CC1 (stereo not shown) [Compound 37f, 1-(3-(4-(4,5-diaminopentanoyl)piperazin-1-yl)-3-oxopropyl)-3-hydroxypyridin-2(1H)-one]
disappearance of the free scavenger to the benefit of adducts with the MGO [6]: almost total disappearance of the free scavenger
ORACFL [1]: 1.96 ± 0.24 μmol TE/μmol

NCCC(=O)N[C@@H](Cc1cnc[nH]1)C(=O)O [Carnosine, carnosine, reference compound]
antioxidant capacity (ORACFL), in words [1]: very low activity
ORACFL [1]: 0.08 ± 0.05 μmol TE/μmol

Reference: US10464920B2, “Vicinal primary diamines associated with metal and/or free radical chelation motifs, and active against carbonyl and oxidative stress, and use thereof” (UNIVERSITE AMIENS PICARDIE JULES VERNE, priority 2015, dated 2019)
